Columns and labels:
pre-pulse inhibition = pre-pulse inhibition (PPI) and startle response; format: in vivo, rat; conditions: D-serine 600 mg/kg, L-4OHPG 15 mg/kg; for effect on the absolute startle response: control experiment
Experimental: Pre-pulse inhibition was measured using the SR-Lab Startle Response system fitted with a rat enclosure. During the acclimation period, each rat (n=8/group) was habituated with a 5 min interval of 65-dB background noise followed by six 120 dB startle pulses alone, each 40 ms long. This acclimation phase was followed by a 15 min PPI test session where rats were presented with 120 dB startle pulses without a pre-pulse (“pulse alone”) or pulses preceded by a 20 ms pre-pulse of 3, 6, or 12 dB above background noise (“PP3”, “PP6”, or “PP12”, respectively) and ended with five 120 dB startle pulses. PPI was recorded for pre-pulse intensities of 3, 6, and 12 dB, and no stimulus. Each pre-pulse trial was administered in pseudorandom order. The 120 dB pulse alone trials were randomly interspersed within the pre-pulse trials and used for comparison with pre-pulse trials. PPI data were calculated as a percentage of PPI by comparing the pulse-alone versus the PP trials using the formula [100−(response to pre-pulse+120 dB)/(response to 120 dB alone)×100]. Experimenter was masked to treatment during testing and analysis.
Data were analyzed with a 2-way ANOVA with Condition and Treatment as factors with post hoc Bonferroni comparisons.

asc-1 = biological target: T1, asc-1 (Rattus norvegicus, UniProt P63116); experiment: sodium-independent [3H]D-serine transport into rat forebrain synaptosomes; format: biochemical; conditions: inhibition of [3H]D-serine transport, rat brain synaptosomes; means of at least two determinations
T1 construct: from tissue; host or cells: rat forebrain P2 (synaptosome) fraction
T1 sequence (P63116 1-530): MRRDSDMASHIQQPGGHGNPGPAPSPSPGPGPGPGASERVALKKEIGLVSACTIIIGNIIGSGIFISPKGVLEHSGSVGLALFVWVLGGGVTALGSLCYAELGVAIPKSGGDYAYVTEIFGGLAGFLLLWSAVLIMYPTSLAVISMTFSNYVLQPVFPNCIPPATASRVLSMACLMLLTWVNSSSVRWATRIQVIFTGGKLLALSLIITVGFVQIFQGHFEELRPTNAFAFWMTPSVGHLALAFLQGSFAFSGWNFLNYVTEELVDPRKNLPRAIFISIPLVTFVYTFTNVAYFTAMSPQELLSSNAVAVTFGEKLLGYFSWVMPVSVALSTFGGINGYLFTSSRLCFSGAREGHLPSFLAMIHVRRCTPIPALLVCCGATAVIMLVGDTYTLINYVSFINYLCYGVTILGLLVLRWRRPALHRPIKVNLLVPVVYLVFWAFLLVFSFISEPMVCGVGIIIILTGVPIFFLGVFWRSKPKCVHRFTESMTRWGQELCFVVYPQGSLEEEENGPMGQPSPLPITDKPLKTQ
T1 sequence (Q794F9 1-527 partner): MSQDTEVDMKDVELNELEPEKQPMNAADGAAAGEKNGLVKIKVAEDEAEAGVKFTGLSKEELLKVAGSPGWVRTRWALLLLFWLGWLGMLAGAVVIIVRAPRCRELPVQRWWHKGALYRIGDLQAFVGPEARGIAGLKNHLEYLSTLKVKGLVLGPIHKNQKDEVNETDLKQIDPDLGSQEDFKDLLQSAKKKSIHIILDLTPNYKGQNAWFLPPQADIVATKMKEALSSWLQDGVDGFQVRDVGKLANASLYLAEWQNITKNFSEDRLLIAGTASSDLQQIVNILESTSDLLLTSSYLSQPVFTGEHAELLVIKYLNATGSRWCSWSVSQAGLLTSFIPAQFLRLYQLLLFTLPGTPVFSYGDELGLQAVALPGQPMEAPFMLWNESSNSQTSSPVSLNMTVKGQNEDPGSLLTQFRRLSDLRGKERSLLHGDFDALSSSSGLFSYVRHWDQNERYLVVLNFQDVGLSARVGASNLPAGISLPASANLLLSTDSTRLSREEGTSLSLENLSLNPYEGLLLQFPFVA
Experimental: Under the assay conditions used, the sodium-independent transport of D-serine by rodent forebrain synaptosomes is mediated by asc-1 (Rutter et al., 2007), and the sodium-dependent transport of D-serine into astrocytes in culture is mediated by an ASCT transporter, ASCT2 according to the literature (Ribeiro et al., 2002).
Synaptosome assays: a P2 fraction of rat forebrain was prepared and assayed immediately. Aliquots of the P2 preparation (approx. 1 mg of original tissue weight) were incubated in sodium-free assay buffer (CholineCl: 128 mM, KCl: 3.5 mM; KH2PO4: 1.5 mM; MgCl2: 1 mM; CaCl2: 1 mM; glucose: 10 mM; Tris-acetate buffer: 10 mM, pH7.4) containing [^3H]D-serine (final concentration of 50 nM) and test compounds in duplicate for 4 mins at room temperature. The synaptosomes containing radiolabel were collected by filtration onto Whatman GF/C filters, and washed twice with ice cold assay buffer. Filters were solubilized in scintillation fluid and radioactivity determined in a beta counter. IC50 values were determined as described for the cell-based assays above.

[1] = tested on: NMDA receptor-mediated excitatory postsynaptic currents (EPSCNMDA); experiment: electrophysiological recording of NMDA receptor-mediated EPSCs in rat hippocampal slices
Experimental: […] thick hippocampal slices were prepared from […] rats using Leica VT1000S-microtome. Slices were perfused with ACSF containing: 121 mM NaCl, 2.5 mM KCl, 2.0 mM Mg2SO4, 2.0 CaCl2, 1 mM NaH2PO4, 26.2 NaHCO3, and 11 mM glucose, which was equilibrated with 5% CO2/95% O2. Experiments were performed in a recording chamber on the stage of an Olympus BX-61wi microscope with infrared DIC optics for visualizing whole-cell patch-clamp recordings. EPSPs were recorded from CA1 pyramidal neurons by stimulating the Schaffer collateral-commissural pathway using a bipolar tungsten electrode. The recording pipettes were filled with regular ICM containing: 120 mM Cs-gluconate, 5 mM NaCl, 10 mM KCl, 0.1 mM CaCl2, 1 mM EGTA, 2 mM MgCl2, 10 mM HEPES, 2 mM Na-ATP, 2 mM Na2-phosphocreatine, and 0.25 mM Na-GTP, pH 7.3 (290 mOsm).
To measure NMDA-mediated EPSCs, extracellular Mg2SO4 was lowered to 0.2 mM and 2 μM NBQX and 100 μM picrotoxin were added in the ACSF. 1 μM 7-CKY (7-chlorokynurenic acid) was added to improve the sensitivity of […] to D-serine.

## N[C@H](CO)C(=O)O [D-serine]
pre-pulse inhibition
  effect on the absolute startle response: neither L-4OHPG nor D-serine had any significant effect
asc-1
  IC50: 9.4 µM

## N[C@H](C(=O)O)c1ccc(O)cc1 [L-4-hydroxyphenylglycine]
pre-pulse inhibition; PP3, PP6, PP12
  effect on PPI: reduced PPI, an effect that reached significance at the PP12 intensity level
pre-pulse inhibition
  effect on the absolute startle response: neither L-4OHPG nor D-serine had any significant effect
[1]; 1000 μM, in presence of 1 μM 7-CKY, representative experiment
  percentage increase in the amplitude of EPSCNMDA: 22%
[1]; 1000 μM, representative experiment
  duration of potentiation of EPSCNMDA: lasted for one hour and then returned to baseline in control buffer
[1]; rat hippocampal slice
  effect on NMDA receptor mediated EPSCs in CA1 region of the hippocampus: potentiated NMDA receptor mediated excitatory post-synaptic currents
asc-1
  IC50: 101 µM
